Measurements as given in patent publication US7851510B2, “Gossypol derivatives, production method thereof and uses of same” (Centre National de la Recherche Scientifique (C.N.R.S.), priority 2004, dated 2010).
pIC50: −log10 of the molar value. Where two headings read alike, the source gives them in different places.

How the values were obtained:
PRAK = molecular target: T1, PRAK (Homo sapiens, UniProt Q8IW41); assay: Protein kinase activity in the presence of compound; assay type: biochemical; conditions: for remaining activity at 10 µM: read-out: Residual activity PRAK
T1 sequence (Q8IW41 1-473): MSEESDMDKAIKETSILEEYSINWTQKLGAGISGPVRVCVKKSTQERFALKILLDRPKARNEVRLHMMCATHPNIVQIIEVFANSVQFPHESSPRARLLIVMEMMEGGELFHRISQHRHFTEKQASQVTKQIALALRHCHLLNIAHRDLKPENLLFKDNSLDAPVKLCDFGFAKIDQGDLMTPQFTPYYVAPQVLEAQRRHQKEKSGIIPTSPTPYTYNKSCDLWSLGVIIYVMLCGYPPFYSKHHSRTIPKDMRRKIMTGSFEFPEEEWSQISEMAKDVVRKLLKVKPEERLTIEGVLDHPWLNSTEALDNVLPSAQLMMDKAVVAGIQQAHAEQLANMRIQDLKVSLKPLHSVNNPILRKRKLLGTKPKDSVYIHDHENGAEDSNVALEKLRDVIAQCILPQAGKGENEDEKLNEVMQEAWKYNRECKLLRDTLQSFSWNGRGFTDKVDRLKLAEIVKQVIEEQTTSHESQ
Experimental: (§1) The action of the compound of formula (14) was tested on a selection of 29 different protein kinases. The activity of these enzymes was measured in the presence of 10 μM of compound, according to the general methodology described by Bain et al. (2003) Biochem. J. 371:199-204 and Davies et al. (2000) Biochem. J. 351:95-105.
(§2) Residual enzyme activity of protein kinases in the presence of inhibitor compounds at the concentration given (expressed as a percentage of the activity measured in the absence of inhibitors). The results obtained for gossypol and gossypolone are given by way of comparison.

PHK = PHK (Oryctolagus cuniculus, UniProt P00518); assay: as above; assay type: biochemical; conditions: read-out: Residual activity PHK
Experimental: as §1, §2

ROCK-II = ROCK-II (Homo sapiens, UniProt O75116); assay: as above; assay type: biochemical; conditions: read-out: Residual activity ROCK-II
Chain of ROCK-II (O75116 whole entry, species assumed): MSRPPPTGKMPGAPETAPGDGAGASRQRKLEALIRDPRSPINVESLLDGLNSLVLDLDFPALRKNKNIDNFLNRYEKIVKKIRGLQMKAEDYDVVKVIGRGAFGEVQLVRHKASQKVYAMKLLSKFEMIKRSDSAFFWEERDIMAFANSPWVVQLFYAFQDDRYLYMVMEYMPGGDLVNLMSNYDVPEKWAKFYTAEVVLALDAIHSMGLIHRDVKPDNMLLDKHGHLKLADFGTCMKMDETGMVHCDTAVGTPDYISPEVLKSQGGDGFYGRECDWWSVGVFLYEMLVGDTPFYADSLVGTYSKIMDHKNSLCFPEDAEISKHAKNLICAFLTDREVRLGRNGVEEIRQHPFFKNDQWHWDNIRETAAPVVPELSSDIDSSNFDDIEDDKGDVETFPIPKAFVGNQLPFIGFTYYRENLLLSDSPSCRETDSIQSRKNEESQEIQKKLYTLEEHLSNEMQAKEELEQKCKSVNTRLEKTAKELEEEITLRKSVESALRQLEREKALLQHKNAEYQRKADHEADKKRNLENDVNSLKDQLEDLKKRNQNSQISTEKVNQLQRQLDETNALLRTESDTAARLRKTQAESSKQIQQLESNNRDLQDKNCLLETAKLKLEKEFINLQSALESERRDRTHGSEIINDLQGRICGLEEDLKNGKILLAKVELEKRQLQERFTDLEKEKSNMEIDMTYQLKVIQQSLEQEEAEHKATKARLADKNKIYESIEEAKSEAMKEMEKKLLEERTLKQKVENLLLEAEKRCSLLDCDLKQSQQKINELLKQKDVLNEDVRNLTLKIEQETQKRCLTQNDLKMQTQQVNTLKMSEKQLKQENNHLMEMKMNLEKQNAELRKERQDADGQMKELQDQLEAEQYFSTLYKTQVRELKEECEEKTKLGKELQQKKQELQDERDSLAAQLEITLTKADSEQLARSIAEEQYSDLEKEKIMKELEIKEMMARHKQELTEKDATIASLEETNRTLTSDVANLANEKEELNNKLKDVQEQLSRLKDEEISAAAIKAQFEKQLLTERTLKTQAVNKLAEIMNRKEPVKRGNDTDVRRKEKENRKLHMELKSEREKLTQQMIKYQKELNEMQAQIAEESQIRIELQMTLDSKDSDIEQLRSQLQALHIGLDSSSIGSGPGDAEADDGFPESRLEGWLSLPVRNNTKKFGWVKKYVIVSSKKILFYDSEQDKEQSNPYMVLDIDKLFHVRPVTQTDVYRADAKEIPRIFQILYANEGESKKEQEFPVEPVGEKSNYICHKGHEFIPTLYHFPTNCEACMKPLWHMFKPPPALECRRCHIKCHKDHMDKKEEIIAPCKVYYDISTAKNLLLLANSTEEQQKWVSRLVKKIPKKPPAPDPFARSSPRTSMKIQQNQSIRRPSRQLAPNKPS
Experimental: as §1, §2

MAPKAP-K2 = MAPKAP-K2 (Homo sapiens, UniProt P49137); assay: as above; assay type: biochemical; conditions: read-out: Residual activity MAPKAP-K2
Experimental: as §1, §2

SAPK2a/p38 = SAPK2a/p38 (Homo sapiens, UniProt Q16539); assay: as above; assay type: biochemical; conditions: read-out: Residual activity SAPK2a/p38
Chain of SAPK2a/p38 (Q16539 whole entry): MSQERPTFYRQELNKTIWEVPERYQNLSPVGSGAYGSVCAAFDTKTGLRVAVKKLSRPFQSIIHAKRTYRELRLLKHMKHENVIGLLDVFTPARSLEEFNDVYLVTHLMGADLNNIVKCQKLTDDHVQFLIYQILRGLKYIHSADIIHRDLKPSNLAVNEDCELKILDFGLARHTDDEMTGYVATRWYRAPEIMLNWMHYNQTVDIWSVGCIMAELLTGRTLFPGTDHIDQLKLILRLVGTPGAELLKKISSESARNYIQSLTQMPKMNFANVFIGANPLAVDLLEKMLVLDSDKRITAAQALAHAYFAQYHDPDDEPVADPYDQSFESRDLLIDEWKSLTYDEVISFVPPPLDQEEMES
Experimental: as §1, §2

SGK = molecular target: T2, SGK (Homo sapiens, UniProt O00141); assay: as above; assay type: biochemical; conditions: for remaining activity at 10 µM: read-out: Residual activity SGK
T2 sequence (O00141 1-431): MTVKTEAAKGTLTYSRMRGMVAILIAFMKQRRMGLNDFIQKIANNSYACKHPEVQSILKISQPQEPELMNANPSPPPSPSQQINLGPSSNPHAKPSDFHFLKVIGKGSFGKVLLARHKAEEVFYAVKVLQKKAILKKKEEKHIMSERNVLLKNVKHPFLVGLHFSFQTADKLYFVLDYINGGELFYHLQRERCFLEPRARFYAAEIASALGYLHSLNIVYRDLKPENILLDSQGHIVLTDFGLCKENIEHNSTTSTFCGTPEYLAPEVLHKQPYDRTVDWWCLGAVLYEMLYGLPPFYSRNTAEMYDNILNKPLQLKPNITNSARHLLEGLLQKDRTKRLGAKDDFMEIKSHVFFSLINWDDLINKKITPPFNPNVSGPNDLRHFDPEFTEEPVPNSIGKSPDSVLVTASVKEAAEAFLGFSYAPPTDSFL
Experimental: as §1, §2

Lck = Lck (Homo sapiens, UniProt P06239); assay: as above; assay type: biochemical; conditions: read-out: Residual activity Lck
Chain of Lck (P06239 whole entry, species assumed): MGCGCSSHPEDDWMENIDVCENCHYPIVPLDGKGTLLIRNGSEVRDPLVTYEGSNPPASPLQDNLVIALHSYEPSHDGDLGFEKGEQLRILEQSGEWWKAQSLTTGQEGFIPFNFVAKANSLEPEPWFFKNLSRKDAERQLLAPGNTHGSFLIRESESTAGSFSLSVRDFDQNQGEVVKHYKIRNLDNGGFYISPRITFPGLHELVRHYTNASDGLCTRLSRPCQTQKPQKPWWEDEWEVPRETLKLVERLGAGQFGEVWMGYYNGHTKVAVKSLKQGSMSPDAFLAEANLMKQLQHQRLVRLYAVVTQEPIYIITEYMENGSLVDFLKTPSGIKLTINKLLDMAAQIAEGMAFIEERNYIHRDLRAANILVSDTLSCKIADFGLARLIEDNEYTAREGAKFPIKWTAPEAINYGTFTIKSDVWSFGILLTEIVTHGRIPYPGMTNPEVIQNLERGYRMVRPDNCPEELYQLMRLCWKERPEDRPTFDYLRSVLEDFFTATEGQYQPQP
Experimental: as §1, §2

AMPK = assay: as above; assay type: biochemical; conditions: 10 μM compound; percentage of the activity measured in the absence of inhibitors
Experimental: as §1, §2

MSK1 = MSK1 (Homo sapiens, UniProt O75582); assay: as above; assay type: biochemical; conditions: read-out: Residual activity MSK1
Chain of MSK1 (O75582 whole entry, species assumed): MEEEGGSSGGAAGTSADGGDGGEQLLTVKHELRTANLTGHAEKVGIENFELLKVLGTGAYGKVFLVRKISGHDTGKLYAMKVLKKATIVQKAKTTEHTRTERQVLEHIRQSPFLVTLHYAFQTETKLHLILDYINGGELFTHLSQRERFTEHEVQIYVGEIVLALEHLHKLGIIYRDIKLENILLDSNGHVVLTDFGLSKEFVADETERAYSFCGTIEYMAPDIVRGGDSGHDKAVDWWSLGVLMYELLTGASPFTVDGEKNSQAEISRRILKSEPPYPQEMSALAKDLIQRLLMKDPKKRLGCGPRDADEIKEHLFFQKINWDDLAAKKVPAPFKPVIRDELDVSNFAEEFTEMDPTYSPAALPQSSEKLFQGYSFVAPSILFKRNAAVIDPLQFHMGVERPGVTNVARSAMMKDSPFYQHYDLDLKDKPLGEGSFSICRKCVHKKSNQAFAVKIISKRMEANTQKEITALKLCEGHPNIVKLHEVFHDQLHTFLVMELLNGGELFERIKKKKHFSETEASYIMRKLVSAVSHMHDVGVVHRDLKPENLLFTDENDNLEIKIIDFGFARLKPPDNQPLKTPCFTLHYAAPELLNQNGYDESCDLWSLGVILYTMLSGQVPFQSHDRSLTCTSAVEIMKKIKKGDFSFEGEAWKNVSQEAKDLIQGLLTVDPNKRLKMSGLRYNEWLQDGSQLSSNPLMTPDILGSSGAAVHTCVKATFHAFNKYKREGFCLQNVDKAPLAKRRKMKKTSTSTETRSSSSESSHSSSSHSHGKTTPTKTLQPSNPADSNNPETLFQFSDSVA
Experimental: as §1, §2

MKK1 = MKK1 (Homo sapiens, UniProt Q02750); assay: as above; assay type: biochemical; conditions: read-out: Residual activity MKK1
Chain of MKK1 (Q02750 whole entry, species assumed): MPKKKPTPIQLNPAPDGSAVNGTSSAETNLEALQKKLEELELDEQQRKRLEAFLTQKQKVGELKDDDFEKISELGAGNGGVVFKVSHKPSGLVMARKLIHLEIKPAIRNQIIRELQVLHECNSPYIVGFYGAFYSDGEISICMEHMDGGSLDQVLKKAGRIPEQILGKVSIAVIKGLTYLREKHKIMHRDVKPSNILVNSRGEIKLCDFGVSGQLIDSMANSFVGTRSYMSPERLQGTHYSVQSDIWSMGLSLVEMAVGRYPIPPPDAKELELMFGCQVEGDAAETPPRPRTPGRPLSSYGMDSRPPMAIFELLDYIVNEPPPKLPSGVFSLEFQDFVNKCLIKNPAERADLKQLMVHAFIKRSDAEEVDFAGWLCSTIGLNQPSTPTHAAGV
Experimental: as §1, §2

CSK = CSK (Homo sapiens, UniProt P41240); assay: as above; assay type: biochemical; conditions: read-out: Residual activity CSK
Chain of CSK (P41240 whole entry, species assumed): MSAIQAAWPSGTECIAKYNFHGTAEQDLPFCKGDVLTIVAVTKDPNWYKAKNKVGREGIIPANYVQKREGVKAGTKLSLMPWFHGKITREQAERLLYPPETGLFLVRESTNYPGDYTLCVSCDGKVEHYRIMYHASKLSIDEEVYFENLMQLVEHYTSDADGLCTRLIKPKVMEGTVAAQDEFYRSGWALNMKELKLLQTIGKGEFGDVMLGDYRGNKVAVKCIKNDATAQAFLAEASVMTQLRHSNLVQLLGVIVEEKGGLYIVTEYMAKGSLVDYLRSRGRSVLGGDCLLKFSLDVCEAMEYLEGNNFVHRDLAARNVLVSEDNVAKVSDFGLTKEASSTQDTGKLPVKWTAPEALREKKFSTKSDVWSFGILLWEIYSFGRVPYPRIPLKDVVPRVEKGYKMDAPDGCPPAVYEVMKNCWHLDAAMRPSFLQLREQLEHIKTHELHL
Experimental: as §1, §2

JNK/SAPK1c = JNK/SAPK1c (Homo sapiens, UniProt P45983); assay: as above; assay type: biochemical; conditions: read-out: Residual activity JNK/SAPK1c
Chain of JNK/SAPK1c (P45983 whole entry): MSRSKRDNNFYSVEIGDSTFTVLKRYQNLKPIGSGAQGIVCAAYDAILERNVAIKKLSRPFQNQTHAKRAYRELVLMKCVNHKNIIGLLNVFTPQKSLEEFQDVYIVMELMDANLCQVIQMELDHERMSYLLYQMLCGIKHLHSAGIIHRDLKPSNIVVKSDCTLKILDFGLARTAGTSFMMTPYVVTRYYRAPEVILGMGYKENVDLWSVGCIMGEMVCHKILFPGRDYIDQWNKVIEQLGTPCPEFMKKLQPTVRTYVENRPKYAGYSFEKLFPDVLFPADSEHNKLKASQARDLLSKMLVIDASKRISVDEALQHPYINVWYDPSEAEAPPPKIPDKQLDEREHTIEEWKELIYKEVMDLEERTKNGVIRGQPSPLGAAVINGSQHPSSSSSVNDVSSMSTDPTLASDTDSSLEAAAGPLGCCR
Experimental: as §1, §2

PKA = PKA (Homo sapiens, UniProt P17612); assay: as above; assay type: biochemical; conditions: read-out: Residual activity PKA
Experimental: as §1, §2

NEK6 = NEK6 (Homo sapiens, UniProt Q9HC98); assay: as above; assay type: biochemical; conditions: read-out: Residual activity NEK6
Chain of NEK6 (Q9HC98 whole entry, species assumed): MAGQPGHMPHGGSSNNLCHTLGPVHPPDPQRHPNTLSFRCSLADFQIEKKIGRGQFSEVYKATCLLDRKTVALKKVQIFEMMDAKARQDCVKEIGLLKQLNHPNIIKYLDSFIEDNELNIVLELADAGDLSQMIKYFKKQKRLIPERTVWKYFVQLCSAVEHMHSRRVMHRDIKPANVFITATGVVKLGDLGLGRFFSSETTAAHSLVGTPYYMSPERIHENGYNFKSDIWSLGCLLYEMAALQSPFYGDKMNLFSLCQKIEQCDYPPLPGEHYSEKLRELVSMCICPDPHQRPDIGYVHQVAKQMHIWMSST
Experimental: as §1, §2

KB tumour cell line = assay: Cytotoxicity vis-à-vis the KB tumour cell line; assay type: cell-based; conditions: Homo sapiens
Experimental: The cytotoxicity of the compound vis-à-vis the KB tumour cell line was measured as is described in Dao et al. (2003) Bioorg. Med. Chem. 11:2001-2006.

[1] = 10 μM compound, percentage of the activity measured in the absence of inhibitors

Structure (SMILES)	Reduction of the activity of PRAK (PRAK; 10 μM compound) [%]	Reduction of the activity of SGK (SGK; 10 μM compound) [%]	Residual activity AMPK (AMPK) [%]	remaining activity at 10 µM (PRAK) [%]	remaining activity at 10 µM (PHK) [%]	remaining activity at 10 µM (ROCK-II) [%]	remaining activity at 10 µM (MAPKAP-K2) [%]	remaining activity at 10 µM (SAPK2a/p38) [%]	remaining activity at 10 µM (SGK) [%]	remaining activity at 10 µM (Lck) [%]	remaining activity at 10 µM (MSK1) [%]	remaining activity at 10 µM (MKK1) [%]	remaining activity at 10 µM (CSK) [%]	remaining activity at 10 µM (JNK/SAPK1c) [%]	remaining activity at 10 µM (PKA) [%]	remaining activity at 10 µM (NEK6) [%]	also measured
CC1=C(C2=C(C)C(=O)c3c(c(CSCCO)c(O)c(O)c3C(C)C)C2=O)C(=O)c2c(CSCCO)c(O)c(O)c(C(C)C)c2C1=O [Compound (14), 6,7,6′,7′-tetrahydroxy-8,8′-bis-(2-hydroxy-ethylsulphanylmethyl)-5,5′-diisopropyl-3,3′-dimethyl-[2,2′]binaphthalenyl-1,4,1′,4′-tetraone]	91	93	70														remaining activity at 10 µM (PRAK; [1]): 9%; remaining activity at 10 µM (PHK; [1]): 27%; remaining activity at 10 µM (ROCK-II; [1]): 73%; remaining activity at 10 µM (MAPKAP-K2; [1]): 36%; remaining activity at 10 µM (SAPK2a/p38; [1]): 102%; remaining activity at 10 µM (SGK; [1]): 7%; remaining activity at 10 µM (Lck; [1]): 54%; remaining activity at 10 µM (MSK1; [1]): 83%; remaining activity at 10 µM (MKK1; [1]): 90%; remaining activity at 10 µM (CSK; [1]): 60%; remaining activity at 10 µM (JNK/SAPK1c; [1]): 88%; remaining activity at 10 µM (PKA; [1]): 59%; remaining activity at 10 µM (NEK6; [1]): 81%
CC1=C(C2=C(C)C(=O)c3c(c(O)c(O)c(O)c3C(C)C)C2=O)C(=O)c2c(O)c(O)c(O)c(C(C)C)c2C1=O [Compound (4), 6,7,8,6′,7′,8′-hexahydroxy-5,5′-diisopropyl-3,3′-dimethyl-[2.2′]binaphthalenyl-1,4,1′,4′-tetraone]	91	96	61	9	47	75	28	105	4	71	69	59	93	105	69	86	pIC50 (KB tumour cell line): 6.00
Cc1cc2c(C(C)C)c(O)c(O)c(C=O)c2c(O)c1-c1c(C)cc2c(C(C)C)c(O)c(O)c(C=O)c2c1O [Gossypol, gossypol]			72	48	23	80	56	99	14	76	79	86	103	90	47	92	
CC1=C(C2=C(C)C(=O)c3c(c(C=O)c(O)c(O)c3C(C)C)C2=O)C(=O)c2c(C=O)c(O)c(O)c(C(C)C)c2C1=O [Gossypolone, gossypolone, reference compound]			66	9	21	54	28	108	3	60	85	76	64	86	69	89	
